According to US20150087723A1, “MICROBIAL COMPOSITION” (Rohm and Haas Company, priority 2011, published 2015):
“And” between values parts separate entries of the source, which are not always exact repeats. Identical values can stand only once.

What was measured:
Format in all cases: cell-based
[1] = test system: Escherichia coli (E. coli—ATCC #10536); test: Synergy test: high resolution MBC microtiter plate assay, phosphate buffer containing 35% dipropylene glycol, 15 seconds contact; settings: E. coli 10536; for SI (Synergy Index = Qa/QA + Qb/QB): at Qa and Qb, <1 synergy, 1 additivity, >1 antagonism
[2] = test system: Escherichia coli (10536 strain); test: Antimicrobial efficacy in water, 15 seconds contact, mean bacterial survival NMBS by colony count
Method: An overnight culture of Escherichia coli (10536 strain) was prepared in 50 ml total volume of TSB broth, grown for ca. 18 hrs at 37° C. and shaken at 150 rpm. 1 ml of this overnight E. coli culture was transferred to 50 ml of fresh TSB broth and incubated at 37° C. at 150 rpm for ca. 4 hours. […] This bacterial stock was used for assaying against antimicrobial actives (in triplicate).
The following assay describes the testing of 8 materials using 6 dilutions across half of a 96-well micro litre plate (MTP). Using this approach it is possible to assay 16 actives (without replicates) with, one full dilution plate, replicating this set up in two halves of the plate columns, 1-6 and 7-12.
IM solutions of the test actives were prepared in dimethylsulphoxide (DMSO).
Aliquots (270 μl) of the materials at 1.11 times the final concentration were dispensed into the wells of the MTP along one column (A1-H1). This MTP was labeled as the “Screening plate”.
In another MTP, labeled as the “Dilution plate”, 270 μl of D/E neutralising solution from DIFCO Composition was added to column 1. The composition of the neutralising solution was as follows: pancreatic digest of casein, 5.0 g/L; Yeast Extract, 2.5 g/L; Dextrose, 10 g/L, sodium thioglycollate, 1.0 g/L, sodium thiosulphate, 6.0 g/L; sodium bisulphite, 2.5 g/L; Polysorbate 80, 5.0 g/L; lecithin 7.0 g/L; bromocresol purple, 0.02 g/L with a pH is the range 7.6±0.2.
270 μl of tryptone diluent solution was added to all the remaining wells of the Dilution MTP (columns 2-6).
Bacterial stock (30 μl) was then added to the prepared 270 μl of the solution of actives in the Screening Plate and mixed, using a multichannel pipette with 8 tips to aspirate and dispense the same volume of bacterial stock in parallel to 8 wells in rows A-H. After a contact time of 15 seconds, the mixtures were quenched by transferring 30 μl volumes of the mixtures into the 270 μl D/E neutralising solution in the prepared dilution plate, using aspiration to mix. After exactly 5 minutes in the D/E neutralising solution, 30 μl volumes were transferred from column 1 to column 2 of the Dilution MTP and mixed, before transferring further 30 μl volumes from column 2 into column 3. This process was repeated serially diluting the bacteria across the plate to column 6.
30 μl volumes from each well in the Dilution MTP were transferred onto pre-labeled segment of Tryptone Soya Agar (TSA) plates starting from the lowest bacterial concentration (highest dilution, column 6) to the highest bacterial concentration (column 1). The TSA plates were allowed to stand for ca. 2 hours so that the 30 μl inocula spots could dry and the plates were then inverted and incubated overnight at 37° C. before enumerating the bacterial colonies at the labeled dilutions to determine the effects of the actives on bacterial growth.
Mean bacterial survival numbers NMBS (expressed in Log CFU/ml) are obtained by first determining the segment of the TSA plate where the number of bacterial colonies is countable. From the colony number in this segment, NMBS is calculated by the formula: […]
Here, Ncol is the colony count, and DF is the dilution factor taken from the MTP-well corresponding to the TSA plate segment (i.e. DF may range from 1 for the quench, to 6 for the highest dilution).

[3] = test system: Staphylococcus aureus (10788 strain); test: as above

SMILES	SI (Synergy Index = Qa/QA + Qb/QB) [1]	Log reduction E. coli ATCC 10536 ([2]; component alone at 0.1% w/v)	Log reduction E. coli ATCC 10536 ([2]; component alone at […] w/v)	Qb: MBC of the second component (B) acting alone (QB) ([1]; component alone (Qa = 0), complete kill in 15 seconds)	Log reduction S. aureus ATCC 6538 ([3]; component alone at 0.1% w/v)	Log reduction S. aureus ATCC 6538 ([3]; component alone at […] w/v)
CCCc1ccccc1O [2-n-propylphenol]	1.00	–	–	–	–	–
CC(C)=CCC/C(C)=C/CO [(E)-3,7-dimethylocta-2,6-dien-1-ol]	1.00	1.27	1.94	0.3 weight % and 0.5 weight % and 0.6 weight %	−0.12	−0.06
